Test results taken from patent US20230391808A1, “PHOSPHAPHENALENE-GOLD(I) COMPLEXES AS CHEMOTHERAPEUTIC AGENTS AGAINST GLIOBLASTOMA” (priority 2020, published 2023).

What was measured:
NCH466 [1] = assay: Crystal violet proliferation assay, brain metastasis NCH466; type: cell-based, human; conditions: brain metastasis cell line, 48 h, mean of three biological replicates ± standard deviation
From the text: (§1) Based on the remarkable results obtained with Compound 6, its anti-proliferative effects on a series of different cancer cell lines was investigated. To that end, in addition to the three glioblastoma cell lines described above, Compound 6 was employed on eleven other cancer cell lines including brain metastasis (NCH517, NCH604a and NCH466), meningioma (NCH93 and BenMen-1), IDH-mutant glioma (NCH511b, NCH1618 and NCH3763), and head and neck cancer cell lines (HNO210, HNO199 and HNO97) (Table 3).
(§2) The effect of different compounds on cell growth was evaluated by the crystal violet method as described earlier (J. P. Rigalli et al., Cancer Lett. 2016, 376, 165-172). Briefly, cells were seeded in 96-well plates (10,000 cells/well). […] After 48 h of exposure extent of cell proliferation inhibition was determined by crystal violet staining of surviving cells. […]
(§3) Next, crystal violet was solubilized in methanol and absorbance was measured at 555 nm. The proliferative index was calculated as crystal violet absorption intensity as percentage relative to baseline (no cells) as described before (T. Peters et al., Naunyn Schmiedebergs Arch Pharmacol. 2006, 372, 291-299.) Cell survival plotted against the decimal logarithm of drug concentration in μM (c (of compound x) in μM) and fitted to a sigmoidal dose-response curve using Graph Pad Prism 7.02 (GraphPad Software, San Diego, USA).

NCH82 cell line = assay: Drug uptake kinetics by fluorescence microscopy; type: cell-based, human
Method: Based on the observed high bio-activity and the spectroscopic properties of Compound 6 as an example of the present invention, the drug uptake kinetics was investigated in NCH82 cell line. To this end, cells were treated with increasing concentrations of Compound 6 and its drug uptake was monitored with a fluorescence microscope (excitation/emission 350/455 nm; data not shown).
To measure the uptake kinetics of compound 6 by NCH82 cells, they were seeded in a 96-well plate (5,000 cells/well) and after 24 h, cell culture medium was replaced with compound 6 or DMSO-containing medium (0.1, 1 and 10 μM). Images were taken with a fluorescence microscope (Olympus, Shinjuku, Japan) at 1 h, 24 h and 48 h after treatment initiation. A laser with an excitation/emission spectrum of 350/455 nm was used and images were taken with a 10× objective.

NCH82 = assay: Crystal violet proliferation assay, NCH82; type: cell-based, human; conditions: glioblastoma cell line, 48 h exposure, mean of three biological replicates ± standard deviation
NCH89 = assay: Crystal violet proliferation assay, NCH89; type: cell-based, human; conditions: glioblastoma cell line, 48 h exposure, mean of three biological replicates ± standard deviation
NCH604a [2] = assay: Annexin V apoptosis assay (flow cytometry), NCH604a; type: cell-based, human; conditions: drug concentration of 2 μM, 48 hours
Method: (§4) For this purpose, cells were incubated with different concentrations of Compound 6 for 48 hours and subsequently analyzed by flow cytometry (see representative example in FIG. 4A). Annexin V and propidium iodide (PI) were used as indicators for apoptosis/necrosis.
(§5) To quantitate the extent of apoptosis and necrosis, either annexin V staining combined with DAPI or double labeling of cells with annexin V and propidium iodide (PI) was used. The double labeling allows the distinction between apoptotic (annexin V^pos/DAPI^neg or annexin V^pos/PI^neg) and necrotic (annexin V^pos/DAPI^pos or annexin V^pos/PI^pos) cells. Cells were seeded in a 6-well plate (2.5×10^5/well) and left to attach overnight. […]
(§6) After treatment supernatant containing apoptotic and necrotic cells was collected, cells were harvested, washed, and up to 1×10^6 cells were incubated with FITC-conjugated annexin V antibody diluted in 1:1000 DAPI solution following manufactures instructions (#51-65874X, BD Bioscienes, Franklin Lakes, USA) or incubated with FITC-conjugated annexin V antibody and PI for 15 min following manufacturer instructions (#51-65974X, BD Biosciences, Franklin Lakes, USA). Cells were acquired by flow cytometry using a BD LSRII flow cytometer (BD Bioscienes, Franklin Lakes, USA) and analyzed by FlowJo Software v7.6.5 (TreeStar, Ahland, USA).

NCH3763 = assay: CellTiter-Glo proliferation assay, IDH-mutant glioma NCH3763; type: cell-based, human; conditions: IDH-mutant glioma cell line, 48 h, mean of three biological replicates ± standard deviation
From the text: as §1
(§7) To assess the effect of Compound 4 and Compound 6 on cell growth of glioma stem-like cells (GSC) and GSC lines derived from IDH-mutant gliomas, cellular ATP levels were measured using the luminescent CellTiter-Glo Assay (Promega Corp, Madison, WI). GCS spheroid cultures were gently dissociated and cell suspensions were seeded in 96-well tissue culture plates (8,000 cells/well, 100 μl/well). After a 24-hour incubation period without any compound freshly reconstituted compound in ten final concentrations ranging from 0.01 μM to 200 μM were added and cells were incubated for 48 hours.
(§8) Before measurement, the plate was equilibrated at room temperature for 30 minutes. […] Next, the plate was incubated for 10 minutes at room temperature and finally, the luminescence was measured. […]

BenMen-1 = assay: Crystal violet proliferation assay, meningioma BenMen-1; type: cell-based, human; conditions: meningioma cell line, 48 h, mean of three biological replicates ± standard deviation
From the text: as §1, §2, §3

NCH517 [3] = assay: Annexin V apoptosis assay (flow cytometry), NCH517; type: cell-based, human; conditions: drug concentration of 2 μM, 48 hours
Method: as §4, §5, §6

NCH149 = assay: Crystal violet proliferation assay, NCH149; type: cell-based, human; conditions: glioblastoma cell line, 48 h exposure, mean of three biological replicates ± standard deviation
Method: In order to investigate the role of the fused phosphaphenalene ring in the bio-activity of the drug, the ability of Compound 5 to inhibit cell proliferation in the glioblastoma cell lines NCH82, NCH89 and NCH149 was examined. For this purpose, cells were incubated with increasing concentrations of Compound 5 and cell proliferation was evaluated by crystal violet assay.
The effect of different compounds on cell growth was evaluated by the crystal violet method as described earlier (J. P. Rigalli et al., Cancer Lett. 2016, 376, 165-172). Briefly, cells were seeded in 96-well plates (10,000 cells/well). After 24 h cell culture medium was replaced by fresh compound-containing medium (ten different concentrations (0.01 to 200 μM μM)). After 48 h of exposure extent of cell proliferation inhibition was determined by crystal violet staining of surviving cells. Therefore, cells were washed and stained with 0.5% crystal violet solution (2.5 g in 100 ml methanol, diluted with 400 ml aqua bidest) for 15 min, rinsed and dried overnight.
as §3

NCH1618 = assay: CellTiter-Glo proliferation assay, IDH-mutant glioma NCH1618; type: cell-based, human; conditions: IDH-mutant glioma cell line, 48 h, mean of three biological replicates ± standard deviation
From the text: as §1, §7, §8

NCH466 [4] = assay: Annexin V apoptosis assay (flow cytometry), NCH466; type: cell-based, human; conditions: drug concentration of 2 μM, 48 hours
Method: as §4, §5, §6

HNO97 = assay: Crystal violet proliferation assay, head and neck cancer HNO97; type: cell-based, human; conditions: head and neck cancer cell line, 48 h, mean of three biological replicates ± standard deviation
From the text: as §1, §2, §3

HNO199 = assay: Crystal violet proliferation assay, head and neck cancer HNO199; type: cell-based, human; conditions: head and neck cancer cell line, 48 h, mean of three biological replicates ± standard deviation
From the text: as §1, §2, §3

HNO210 = assay: Crystal violet proliferation assay, head and neck cancer HNO210; type: cell-based, human; conditions: head and neck cancer cell line, 48 h, mean of three biological replicates ± standard deviation
From the text: as §1, §2, §3

[5] = tested on: cancer cell lines derived from brain metastases, meningiomas, IDH-mutant gliomas and head and neck cancers; assay: Annexin V apoptosis assay (flow cytometry), all analyzed cell lines; type: cell-based, human; conditions: 48 hours (FIG. 4)
Method: as §4, §5, §6

NCH93 [6] = assay: Annexin V apoptosis assay (flow cytometry), NCH93; type: cell-based, human; conditions: drug concentration of 2 μM, 48 hours
Method: as §4, §5, §6

[7] = Stability under controlled thermodynamic conditions upon repetitive cycles of illumination; type: physicochemical; conditions: data not shown
NCH93 [8] = assay: Crystal violet proliferation assay, meningioma NCH93; type: cell-based, human; conditions: meningioma cell line, 48 h, mean of three biological replicates ± standard deviation
From the text: as §1, §2, §3

cancer cell lines = assay: Anti-proliferative effects on a series of different cancer cell lines; type: cell-based, human; conditions: summary over all cell lines of Table 3; read-out: mean IC50 values in some cell lines
From the text: as §1, §2
as §3, with “USA). […]” for “USA).”

NCH604a [9] = assay: Crystal violet proliferation assay, brain metastasis NCH604a; type: cell-based, human; conditions: brain metastasis cell line, 48 h, mean of three biological replicates ± standard deviation
From the text: as §1, §2, §3

NCH517 [10] = assay: Crystal violet proliferation assay, brain metastasis NCH517; type: cell-based, human; conditions: brain metastasis cell line, 48 h, mean of three biological replicates ± standard deviation
From the text: as §1, §2, §3

[11] = tested on: head and neck cancer cell lines; assay: Annexin V apoptosis assay (flow cytometry), head and neck cancer cell lines; type: cell-based, human; conditions: drug concentration of 5 μM, 48 hours
Method: as §4, §5, §6

NCH551b = assay: CellTiter-Glo proliferation assay, IDH-mutant glioma NCH551b; type: cell-based, human; conditions: IDH-mutant glioma cell line, 48 h, mean of three biological replicates ± standard deviation
From the text: as §1, §7, §8

CC(=O)OC[C@H]1O[C@@H]([S][Au-][P+]2(c3ccccc3)c3ccn(C)c3-c3cccc4cccc2c34)[C@H](OC(C)=O)[C@@H](OC(C)=O)[C@@H]1OC(C)=O (stereo partly drawn) [Compound 6]
IC50 (NCH466 [1]): 1.01 ± 0.02 µM | time after treatment initiation at which dead cells were first observed (NCH82 cell line; 0.1 μM): 48 h | time after which cell death could be observed (NCH82 cell line; 1 μM): 24 h | IC50 (NCH82): 0.73 µM | IC50 (NCH89): 4 µM | cells in apoptosis/necrosis, NCH604a (NCH604a [2]): more than 50% | IC50 (NCH3763): 5.21 ± 0.31 µM | IC50 (BenMen-1): 1.32 ± 0.12 µM | cells in apoptosis/necrosis, NCH517 (NCH517 [3]): more than 50% | IC50 (NCH149): 0.87 µM | IC50 (NCH1618): 0.88 µM | cells in apoptosis/necrosis, NCH466 (NCH466 [4]): more than 50% | IC50 (HNO97): 5.51 ± 1.04 µM | IC50 (HNO199): 2.65 ± 0.25 µM | IC50 (HNO210): 1.1 ± 0.08 µM | induction of apoptosis/necrosis in all analyzed cell lines [5]: able to induce apoptosis/necrosis | cells in apoptosis/necrosis, NCH93 (NCH93 [6]): more than 50% | stability upon repetitive cycles of illumination [7]: very high stability | IC50 (NCH93 [8]): 1.35 ± 0.09 µM | IC50 (cancer cell lines): ~1.5 µM | IC50 (NCH604a [9]): 1.86 ± 0.14 µM | IC50 (NCH517 [10]): 1.6 ± 0.3 µM | cells in apoptosis/necrosis, head and neck cancer cell lines [11]: more than 50% | IC50 (NCH551b): 1.23 ± 0.25 µM
